Reference: patent US20100093777A1 (Takeda Pharmaceutical Company Limited, priority 2007, published 2010)

Tests used:
[1] = molecular target: T1, Human ACC2 (Nd, N terminal deleted) (Homo sapiens, UniProt O00763); assay: Measurement of ACC2 inhibitory activity (recombinant ACC2 (Nd), malachite green absorbance); assay type: biochemical; details: recombinant human ACC2 (Nd) 6.4 μg/ml; 30° C.; 200 μM ATP, 200 μM Acetyl-CoA; absorbance 620 nm
T1 construct: His tag (from the pFAST-BacHTa vector); own knowledge: N-terminal 6xHis with TEV site; made in house; host or cells: SF-9 insect cells, recombinant baculovirus BAC-ACC2 (Nd)
Experimental: The ACC2 inhibitory action of the compound of the present invention was evaluated by the following method.
(§1) Human ACC2 gene was cloned by PCR using a human skeletal muscle cDNA library (Clontech) as a template and Primer 1 and Primer 2 shown below. Primer 1 and Primer 2 were prepared by adding SalI, XbaI restriction enzyme recognition sequences based on the information of the base sequence (Genbank Accession U89344) of human ACC2 gene.
(§2) PCR was performed using Pyrobest DNA polymerase (TAKARA BIO INC.). The obtained PCR product was cloned to pT7 Blue vector (Novagen) and, after confirmation of the base sequence, digested with restriction enzymes SalI and XbaI. The obtained DNA fragment was inserted into pFAST-BacHTa (Invitrogen) digested with restriction enzymes SalI and XbaI to give expression plasmid ACC2/pFAST-BacHTa.
PCR was performed using the expression plasmid as a template and Primer 3 and Primer 4 shown below to prepare a plasmid to be used for expression of ACC2 free of mitochondrial targeting sequence.
as §2, with “Pyrobest-DNA” for “Pyrobest DNA”, “AflII.” for “XbaI.”, “AflII” for “XbaI”, “ACC2mito7/pFAST-BacHTa.” for “ACC2/pFAST-BacHTa.”
Using the expression plasmid and BAC-TO-BAC Baculovirus Expression System (Invitrogen), virus stock BAC-ACC2 (N terminal deleted (hereinafter Nd)) of recombinant Baculovirus was prepared.
SF-9 cells (Invitrogen) were inoculated to a medium (2 L) for insect cells (Sf-900IISFM medium (Invitrogen) containing 10% fetal bovine serum (Trace), 50 mg/L Gentamicin (Invitrogen), 0.1% Pluronic F-68 (Invitrogen)) at 0.5×10^6 cells/mL, and cultured with shaking in Wave Bioreactor (Wave) at 27° C., 20 rpm, rocking angle […], oxygen concentration 30%.
On day 4 of the culture, 3 L of the medium for insect cells was added, the rocking angle was set to 8°, and the cells were cultured. On day 5 of the culture, 100 mL of recombinant Baculovirus BAC-ACC2 (Nd) was added, 5 L of the medium for insect cells was further added, the rocking angle was set to 11°, and the cells were cultured for 3 days. The culture medium was centrifuged at 1000×g for 10 min to give virus-infected cells. The cells were washed with phosphate buffered saline (Invitrogen) and centrifuged under the same conditions. The obtained cells were cryopreserved at −80° C.
The cryopreserved cells were thawed in ice and suspended in 900 mL of 25 mM HEPES buffer (pH 7.5) containing 10% Glycerol, 0.13 M NaCl, 1 mM EDTA, 25 mM Sodium βGlycerophosphate and 1 mM Sodium Orthovanadate, and supplemented with Complete Protease Inhibitor (Nippon Boehringer Ingelheim Co., Ltd.). The obtained suspension was homogenized 3 times in a polytron homogenizer (Kinematica) at 20,000 rpm for 30 sec. The obtained cell disruption solution was clarified by centrifugation at 31000×g for 60 min, and filtered through a 0.45 μm filter. The filtrate was passed through a column packed with 60 mL of Ni-NTA Super Flow Gel (QUIAGEN) at a flow rate of about 5 mL/min. The column was washed with buffer A (50 mM HEPES (pH 7.5) containing 0.3 M NaCl), further washed with buffer A containing 20 mM Imidazole, and eluted with buffer A containing 100 mM Imidazole. The eluate was concentrated with Vivaspin 20 (Vivascience) with a molecular weight cut off of 30K. The obtained concentrate was dialyzed against 50 mM HEPES (pH 7.5) containing 10 mM MgCl2, 2[…] Dithiothreitol, 10 mM Tripotassium Citrate and 0.3 M NaCl. The inner dialysate was filtered through a 0.22 μm filter to give ACC2 (Nd). The obtained ACC2 (Nd) was cryopreserved at −80° C.
A test compound was dissolved in dimethyl sulfoxide (DMSO) and the mixture was diluted with an enzyme reaction buffer and the resulting solution (5 μl) was added to each well.

[2] = molecular target: T2, Human ACC1 (Homo sapiens, UniProt Q13085); assay: Measurement of ACC1 inhibitory activity (recombinant enzyme, malachite green absorbance); assay type: biochemical; details: recombinant human ACC1 8 μg/ml; 30° C.; 200 μM ATP, 200 μM Acetyl-CoA; absorbance 620 nm
T2 construct: His tag (from the pFAST-BacHTc vector); own knowledge: N-terminal 6xHis with TEV site; made in house; host or cells: SF-9 insect cells, recombinant baculovirus BAC-ACC1
Experimental: The ACC1 inhibitory action of the compound of the present invention was evaluated by the following method.
as §1, with “ACC1” for “ACC2”, “liver” for “skeletal muscle”, “NotI” for “XbaI”, “sequence” for “sequences”, “U19822)” for “U89344)”
as §2, with “using a” for “using”, “INC.)” for “INC.).”, “NotI.” for “XbaI.”, “to pFAST-BacHTc” for “into pFAST-BacHTa”, “NotI” for “XbaI”, “ACC1/pFAST-BacHTc.” for “ACC2/pFAST-BacHTa.”
Using the expression plasmid and BAC-TO-BAC Baculovirus Expression System (Invitrogen), virus stock BAC-ACC1 of recombinant Baculovirus was prepared.
SF-9 cells (Invitrogen) were inoculated to a medium (1 L) for insect cells (Sf-900IISFM medium (Invitrogen) containing 10% fetal bovine serum (Trace), 50 mg/L Gentamicin (Invitrogen) and 0.1% Pluronic F-68 (Invitrogen)) at 1×10^6 cells/mL, and cultured with shaking at 27° C., 100 rpm in a 2 L Erlenmeyer flask.
After 24 hr of the culture, recombinant Baculovirus BAC-ACC1 (10 mL) was added, and the cells were further cultured for 3 days. The culture medium was centrifuged at 1000×g for 5 min to give virus-infected cells. The cells were washed with phosphate buffered saline (Invitrogen), and centrifuged under the same conditions, and the obtained cells were cryopreserved at −80° C.
The cryopreserved cells were thawed in ice and suspended in 100 mL of 25 mM HEPES buffer (pH 7.5) containing 10% Glycerol, 0.13 M NaCl, 1 mM EDTA, 25 mM Sodium β-Glycerophosphate and 1 mM Sodium Orthovanadate, and supplemented with Complete Protease Inhibitor (Nippon Boehringer Ingelheim Co., Ltd.). The obtained suspension was homogenized 3 times in a polytron homogenizer (Kinematica) at 20,000 rpm for 30 sec. The obtained cell disruption solution was clarified by centrifugation at 185700×g for 50 min, and filtered through a 0.45 μm filter. The filtrate was passed through a column packed with 12 mL of Ni-NTA Super Flow Gel (QUIAGEN) at a flow rate of about 5 mL/min. The column was washed with buffer A (50 mM HEPES (pH 7.5) containing 0.3 M NaCl), further washed with buffer A containing 20 mM Imidazole, and eluted with buffer A containing 100 mM Imidazole. The eluate was concentrated with Vivaspin 20 (Vivascience) with a molecular weight cut off of 30K. The obtained concentrate was dialyzed against Sephadex G-25 (Amersham Biosciences, 358 ml) equilibrated with 50 mM HEPES (pH 7.5) containing 10 mM MgCl2, 2 mM Dithiothreitol, 10 mM Tripotassium Citrate and 0.3 M NaCl. The inner dialysate was concentrated with Vivaspin 20 (Vivascience) with a molecular weight cut off of 30K, and the concentrate was filtered through a 0.22 μm filter to give ACC1. The obtained ACC1 was cryopreserved at −80° C.
ACC1 (0.93 mg/ml) obtained in the above-mentioned (2) was diluted with an enzyme reaction buffer (50 mM HEPES (pH 7.5), 10 mM MgCl2, 10 mM Tripotassium Citrate, 2 mM Dithiothreitol, 0.75 mg/ml Fatty acid free BSA) to concentration of 8 μg/ml, and the mixture was added to each well of 384 well assay plate (Nunc 265196) by 10 μl.
Thereafter, ACC1 inhibitory rate (%) was measured in the same manner as in the below-mentioned Experimental Example 2-(3), and IC50 value was calculated.
ACC2 (Nd) (1.1 mg/ml) obtained in the above-mentioned (2) was diluted with an enzyme reaction buffer (50 mM HEPES (pH 7.5), 10 mM MgCl2, 10 mM Tripotassium Citrate, 2 mM Dithiothreitol, 0.75 mg/ml Fatty acid free BSA) to a concentration of 6.4 μg/ml, and the mixture was added to each well of a 384 well assay plate (Nunc 265196) by 10 μl. […]

T1 sequence (O00763 117-2458 limits assumed, stated change not applied): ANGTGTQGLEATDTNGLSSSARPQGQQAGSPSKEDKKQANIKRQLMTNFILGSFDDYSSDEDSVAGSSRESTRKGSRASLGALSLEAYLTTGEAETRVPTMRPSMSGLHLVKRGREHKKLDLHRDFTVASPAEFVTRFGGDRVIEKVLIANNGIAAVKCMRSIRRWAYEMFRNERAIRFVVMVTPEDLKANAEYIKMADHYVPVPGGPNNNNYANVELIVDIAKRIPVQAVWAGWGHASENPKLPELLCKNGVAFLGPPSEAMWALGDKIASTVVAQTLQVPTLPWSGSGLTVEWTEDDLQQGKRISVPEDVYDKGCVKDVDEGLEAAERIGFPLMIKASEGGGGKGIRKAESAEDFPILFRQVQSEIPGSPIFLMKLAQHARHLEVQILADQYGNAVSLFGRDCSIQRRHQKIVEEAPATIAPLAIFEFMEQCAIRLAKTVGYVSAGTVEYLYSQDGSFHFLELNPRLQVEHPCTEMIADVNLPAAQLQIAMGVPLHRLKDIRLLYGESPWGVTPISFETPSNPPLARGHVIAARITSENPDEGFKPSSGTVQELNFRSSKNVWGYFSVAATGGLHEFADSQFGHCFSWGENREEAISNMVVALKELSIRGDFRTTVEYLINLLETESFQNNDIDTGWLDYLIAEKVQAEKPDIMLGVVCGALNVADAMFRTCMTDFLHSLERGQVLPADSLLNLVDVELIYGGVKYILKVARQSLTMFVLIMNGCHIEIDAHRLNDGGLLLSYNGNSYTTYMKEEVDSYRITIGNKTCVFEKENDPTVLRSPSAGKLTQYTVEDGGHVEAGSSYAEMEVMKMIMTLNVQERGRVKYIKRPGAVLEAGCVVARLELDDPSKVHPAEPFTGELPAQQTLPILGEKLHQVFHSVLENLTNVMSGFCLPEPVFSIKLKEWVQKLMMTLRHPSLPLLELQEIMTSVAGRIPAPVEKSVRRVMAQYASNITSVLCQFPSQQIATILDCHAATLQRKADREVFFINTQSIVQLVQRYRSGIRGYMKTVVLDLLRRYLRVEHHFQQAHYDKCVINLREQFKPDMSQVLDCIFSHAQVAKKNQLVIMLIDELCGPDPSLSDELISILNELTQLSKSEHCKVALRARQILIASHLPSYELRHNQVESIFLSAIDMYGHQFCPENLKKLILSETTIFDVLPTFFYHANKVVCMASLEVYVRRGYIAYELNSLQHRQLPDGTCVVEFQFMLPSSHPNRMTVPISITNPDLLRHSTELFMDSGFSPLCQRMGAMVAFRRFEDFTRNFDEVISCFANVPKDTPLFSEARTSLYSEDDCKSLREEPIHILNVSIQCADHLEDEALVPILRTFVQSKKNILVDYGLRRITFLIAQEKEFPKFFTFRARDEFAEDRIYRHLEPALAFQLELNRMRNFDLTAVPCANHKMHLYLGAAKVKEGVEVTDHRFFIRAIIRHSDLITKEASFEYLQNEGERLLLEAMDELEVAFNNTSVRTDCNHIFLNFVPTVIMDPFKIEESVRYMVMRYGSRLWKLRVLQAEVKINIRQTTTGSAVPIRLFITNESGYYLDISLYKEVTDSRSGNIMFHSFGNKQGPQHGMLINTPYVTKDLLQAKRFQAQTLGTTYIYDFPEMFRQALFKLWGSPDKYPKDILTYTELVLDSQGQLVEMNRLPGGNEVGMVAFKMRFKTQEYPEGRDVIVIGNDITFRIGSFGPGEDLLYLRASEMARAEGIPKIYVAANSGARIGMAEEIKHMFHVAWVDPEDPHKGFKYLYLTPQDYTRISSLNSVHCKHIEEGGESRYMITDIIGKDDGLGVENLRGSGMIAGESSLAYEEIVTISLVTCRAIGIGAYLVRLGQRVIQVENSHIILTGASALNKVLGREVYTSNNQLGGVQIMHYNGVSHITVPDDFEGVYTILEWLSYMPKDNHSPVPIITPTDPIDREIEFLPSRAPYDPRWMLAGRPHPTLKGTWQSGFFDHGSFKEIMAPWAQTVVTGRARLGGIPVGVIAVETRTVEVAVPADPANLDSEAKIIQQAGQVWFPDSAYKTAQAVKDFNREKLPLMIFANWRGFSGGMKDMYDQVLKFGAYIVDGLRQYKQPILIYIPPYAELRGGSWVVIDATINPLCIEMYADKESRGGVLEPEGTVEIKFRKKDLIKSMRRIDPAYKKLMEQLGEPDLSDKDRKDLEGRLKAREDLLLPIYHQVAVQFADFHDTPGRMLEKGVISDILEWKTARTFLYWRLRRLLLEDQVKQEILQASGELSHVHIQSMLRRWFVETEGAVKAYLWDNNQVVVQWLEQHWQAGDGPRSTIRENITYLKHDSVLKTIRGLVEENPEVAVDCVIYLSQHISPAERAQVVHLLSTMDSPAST

Row | IC50 [1] | IC50 [2] | SMILES
1 | 1 to 10 nM | 10 to 100 nM | CNC(=O)Nc1sc2ncccc2c1C(=O)N1CCC(N2CCCC3(C2)CC(C)(C)OC3=O)CC1 (single isomer, unassigned) [Example 14, N-(3-{[4-(3,3-dimethyl-1-oxo-2-oxa-7-azaspiro[4.5]dec-7-yl)piperidin-1-yl]carbonyl}thieno[2,3-b]pyridin-2-yl)-N′-methylurea]
2 | 1 to 10 nM | 10 to 100 nM | CNC(=O)Nc1sc2nc(C)ccc2c1C(=O)N1CCC(N2CCCC3(CC(=O)N(C(C)C)C3=O)C2)CC1 (single isomer, unassigned) [Example 18, N-(3-{[4-(2-isopropyl-1,3-dioxo-2,7-diazaspiro[4.5]dec-7-yl)piperidin-1-yl]carbonyl}-6-methylthieno[2,3-b]pyridin-2-yl)-N′-methylurea]
3 |  | 10 to 100 nM | CCNC(=O)Nc1sc2nc(C)ccc2c1C(=O)N1CCC(N2CCCC3(CC(=O)N(C(C)C)C3=O)C2)CC1 (single isomer, unassigned) [Example 19, N-ethyl-N′-(3-{[4-(2-isopropyl-1,3-dioxo-2,7-diazaspiro[4.5]dec-7-yl)piperidin-1-yl]carbonyl}-6-methylthieno[2,3-b]pyridin-2-yl)urea]
4 | 1 to 10 nM | 10 to 100 nM | CNC(=O)Nc1sc2nc(C)ccc2c1C(=O)N1CCC(N2CCCC3(C2)CC(C)(C)OC3=O)CC1 (single isomer, unassigned) [Example 27, N-(3-{[4-(3,3-dimethyl-1-oxo-2-oxa-7-azaspiro[4.5]dec-7-yl)piperidin-1-yl]carbonyl}-6-methylthieno[2,3-b]pyridin-2-yl)-N′-methylurea]
5 | 1 to 10 nM | 10 to 100 nM | CCNC(=O)Nc1sc2nc(C)ccc2c1C(=O)N1CCC(N2CCCC3(C2)CC(C)(C)OC3=O)CC1 (single isomer, unassigned) [Example 28, N-(3-{[4-(3,3-dimethyl-1-oxo-2-oxa-7-azaspiro[4.5]dec-7-yl)piperidin-1-yl]carbonyl}-6-methylthieno[2,3-b]pyridin-2-yl)-N′-ethylurea]
6 | 1 to 10 nM | 10 to 100 nM | CCNC(=O)Nc1sc2nc(C)ccc2c1C(=O)N1CCC(N2CCCC3(CCN(C(C)C)C3=O)C2)CC1 (single isomer, unassigned) [Example 65, N-ethyl-N′-(3-{[4-(2-isopropyl-1-oxo-2,7-diazaspiro[4.5]dec-7-yl)piperidin-1-yl]carbonyl}-6-methylthieno[2,3-b]pyridin-2-yl)urea]
7 |  | 10 to 100 nM | CNC(=O)Nc1sc2ncccc2c1C(=O)N1CCC(N2CCCC3(C2)SC(=O)N(C(C)C)C3=O)CC1 (stereo not shown) [Example 11, N-(3-{[4-(3-isopropyl-2,4-dioxo-1-thia-3,7-diazaspiro[4.5]dec-7-yl)piperidin-1-yl]carbonyl}thieno[2,3-b]pyridin-2-yl)-N′-methylurea]
8 |  | 10 to 100 nM | CNC(=O)Nc1sc2nc(C)ccc2c1C(=O)N1CCC(N2CCCC3(C2)SC(=O)N(C(C)C)C3=O)CC1 (stereo not shown) [Example 31, N-(3-{[4-(3-isopropyl-2,4-dioxo-1-thia-3,7-diazaspiro[4.5]dec-7-yl)piperidin-1-yl]carbonyl}-6-methylthieno[2,3-b]pyridin-2-yl)-N′-methylurea]
9 |  | 10 to 100 nM | CCNC(=O)Nc1sc2nc(C)ccc2c1C(=O)N1CCC(N2CCCC3(C2)N=C(C)N(C(C)C)C3=O)CC1 (stereo not shown) [Example 52]
10 | 1 to 10 nM | 10 to 100 nM | CCNC(=O)Nc1sc2nc(C)c(C)cc2c1C(=O)N1CCC(N2CCCC3(C2)N=C(C)N(C(C)C)C3=O)CC1 (stereo not shown) [Example 56]
11 | 1 to 10 nM |  | CNC(=O)Nc1sc2nc(C)c(C)cc2c1C(=O)N1CCC(N2CCCC3(C2)CC(C)(C)OC3=O)CC1 (stereo not shown) [Example 74]
12 | 1 to 10 nM |  | CCNC(=O)Nc1sc2nc(C)c(C)cc2c1C(=O)N1CCC(N2CCCC3(C2)CC(C)(C)OC3=O)CC1 (stereo not shown) [Example 75]
13 |  | 10 to 100 nM | CCNC(=O)Nc1sc2nc(C(F)(F)F)ccc2c1C(=O)N1CCC(N2CCCC3(CC(=O)N(C(C)C)C3=O)C2)CC1 (stereo not shown) [Example 96, N-ethyl-N′-[3-{[4-(2-isopropyl-1,3-dioxo-2,7-diazaspiro[4.5]dec-7-yl)piperidin-1-yl]carbonyl}-6-(trifluoromethyl)thieno[2,3-b]pyridin-2-yl]urea]
